Experiments:
Test in all cases: Inhibition of bacteria growth, drug dilution tubes, anaerobic
Type in all cases: cell-based
[1] = system: Mobiluncus curtisii var. curtisii ATCC 35241; design: key: (+) for growth; (−) for no growth; (±) for suboptimal growth after an initial observation of growth
Procedure: (§1) Serial dilutions of tinidazole and terconazole were prepared by adding measured amounts of each substance to water (both individually and in combination). Seven bacterial organisms that are common pathogens in bacterial vaginosis were grown anaerobically in the medium as listed in Table 4 under a N2/H2/CO2 (85:5:10) head space atmosphere. [table] These cultures were diluted to a 0.5 McFarland standard prior to inoculation of drug dilution tubes. One (1) mL of the 0.5 McFarland preparation was inoculated to an anaerobically prepared test tube containing 0.8 mL of Difco anaerobic medium (DAMM) and 0.2 mL of appropriate diluted antimicrobial or antimicrobial combination for a total of 2 mL. The inoculated tubes were then incubated at 37° C. and monitored daily for growth. Growth was scored with a (+) for growth, (−) for no growth, and (±) for suboptimal growth after an initial observation of growth. Tinidazole is abbreviated as TNZ and terconazole is abbreviated as TER in Tables 5 through 11.

[2] = system: Gardnerella vaginalis ATCC 14019; design: key to growth: (+) for growth; (−) for no growth; (±) for suboptimal growth after an initial observation of growth
Procedure: as §1

[3] = system: Mobiluncus mulieris ATCC 35243; design: key to growth: (+) for growth; (−) for no growth; (±) for suboptimal growth after an initial observation of growth
Procedure: as §1

## CC(C)N1CCN(c2ccc(OCC3COC(Cn4cncn4)(c4ccc(Cl)cc4Cl)O3)cc2)CC1 (stereo not drawn) [TER, cis-1-[p[[2-(2,4-dichlorophenyl)-2-(1 H-1,2,4-triazol-1-ylmethyl)-1,3-dioxolan-4-yl]methoxy]phenyl]-4-isopropylpiperazine]
[1]; TER 3.1 μg/ml, DAY 1
  growth: (+)
[1]; TER 3.1 μg/ml, DAY 2
  growth: (+)
[1]; TER 3.1 μg/ml, DAY 3
  growth: (+)
[1]; TER 3.1 μg/ml, DAY 4
  growth: (+)
[1]; TER 3.1 μg/ml, DAY 5
  growth: (+)
[1]; TER 6.2 μg/ml, DAY 1
  growth: (+)
[1]; TER 6.2 μg/ml, DAY 2
  growth: (+)
[1]; TER 6.2 μg/ml, DAY 3
  growth: (+)
[1]; TER 6.2 μg/ml, DAY 4
  growth: (+)
[1]; TER 6.2 μg/ml, DAY 5
  growth: (+)
[1]; TER 12.5 μg/ml, DAY 1
  growth: (+)
[1]; TER 12.5 μg/ml, DAY 2
  growth: (+)
[1]; TER 12.5 μg/ml, DAY 3
  growth: (+)
[1]; TER 12.5 μg/ml, DAY 4
  growth: (+)
[1]; TER 12.5 μg/ml, DAY 5
  growth: (+)
[1]; TER 25 μg/ml, DAY 1
  growth: (+)
[1]; TER 25 μg/ml, DAY 2
  growth: (+)
[1]; TER 25 μg/ml, DAY 3
  growth: (+)
[1]; TER 25 μg/ml, DAY 4
  growth: (+)
[1]; TER 25 μg/ml, DAY 5
  growth: (+)
[1]; TER 50 μg/ml, DAY 1
  growth: (+)
[1]; TER 50 μg/ml, DAY 2
  growth: (+)
[1]; TER 50 μg/ml, DAY 3
  growth: (+)
[1]; TER 50 μg/ml, DAY 4
  growth: (+)
[1]; TER 50 μg/ml, DAY 5
  growth: (+)
[1]; TER 100 μg/ml, DAY 1
  growth: (+)
[1]; TER 100 μg/ml, DAY 2
  growth: (+)
[1]; TER 100 μg/ml, DAY 3
  growth: (+)
[1]; TER 100 μg/ml, DAY 4
  growth: (+)
[1]; TER 100 μg/ml, DAY 5
  growth: (+)
[1]; TER 200 μg/ml, DAY 1
  growth: (−)
[1]; TER 200 μg/ml, DAY 2
  growth: (+)
[1]; TER 200 μg/ml, DAY 5
  growth: (+)
[1]; TER 400 μg/ml, DAY 1
  growth: (−)
[1]; TER 400 μg/ml, DAY 2
  growth: (−)
[1]; TER 400 μg/ml, DAY 3
  growth: (−)
[1]; TER 400 μg/ml, DAY 4
  growth: (−)
[1]; TER 400 μg/ml, DAY 5
  growth: (+)
[1]; TER 800 μg/ml, DAY 1
  growth: (−)
[1]; TER 800 μg/ml, DAY 2
  growth: (−)
[1]; TER 800 μg/ml, DAY 3
  growth: (−)
[1]; TER 800 μg/ml, DAY 4
  growth: (−)
[1]; TER 800 μg/ml, DAY 5
  growth: (+)
[2]
  antibacterial activity compared with tinidazole: superior to the antibacterial compound tinidazole
[2]; TER 3.1 μg/ml, DAY 1
  growth: (+)
[2]; TER 3.1 μg/ml, DAY 2
  growth: (+)
[2]; TER 3.1 μg/ml, DAY 3
  growth: (+)
[2]; TER 3.1 μg/ml, DAY 4
  growth: (+)
[2]; TER 3.1 μg/ml, DAY 5
  growth: (+)
[2]; TER 6.2 μg/ml, DAY 1
  growth: (+)
[2]; TER 6.2 μg/ml, DAY 2
  growth: (+)
[2]; TER 6.2 μg/ml, DAY 3
  growth: (+)
[2]; TER 6.2 μg/ml, DAY 4
  growth: (+)
[2]; TER 6.2 μg/ml, DAY 5
  growth: (+)
[2]; TER 12.5 μg/ml, DAY 1
  growth: (+)
[2]; TER 12.5 μg/ml, DAY 2
  growth: (+)
[2]; TER 12.5 μg/ml, DAY 3
  growth: (+)
[2]; TER 12.5 μg/ml, DAY 4
  growth: (+)
[2]; TER 12.5 μg/ml, DAY 5
  growth: (+)
[2]; TER 25 μg/ml, DAY 1
  growth: (+)
[2]; TER 25 μg/ml, DAY 2
  growth: (+)
[2]; TER 25 μg/ml, DAY 3
  growth: (+)
[2]; TER 25 μg/ml, DAY 4
  growth: (+)
[2]; TER 25 μg/ml, DAY 5
  growth: (+)
[2]; TER 50 μg/ml, DAY 1
  growth: (+)
[2]; TER 50 μg/ml, DAY 2
  growth: (+)
[2]; TER 50 μg/ml, DAY 3
  growth: (+)
[2]; TER 50 μg/ml, DAY 4
  growth: (+)
[2]; TER 50 μg/ml, DAY 5
  growth: (+)
[2]; TER 100 μg/ml, DAY 1
  growth: (+)
[2]; TER 100 μg/ml, DAY 2
  growth: (+)
[2]; TER 100 μg/ml, DAY 3
  growth: (+)
[2]; TER 100 μg/ml, DAY 4
  growth: (+)
[2]; TER 100 μg/ml, DAY 5
  growth: (+)
[2]; TER 200 μg/ml, DAY 1
  growth: (+)
[2]; TER 200 μg/ml, DAY 2
  growth: (+)
[2]; TER 200 μg/ml, DAY 3
  growth: (+)
[2]; TER 200 μg/ml, DAY 4
  growth: (+)
[2]; TER 200 μg/ml, DAY 5
  growth: (+)
[2]; TER 400 μg/ml, DAY 1
  growth: (+)
[2]; TER 400 μg/ml, DAY 2
  growth: (+)
[2]; TER 400 μg/ml, DAY 3
  growth: (+)
[2]; TER 400 μg/ml, DAY 4
  growth: (+)
[2]; TER 400 μg/ml, DAY 5
  growth: (+)
[2]; TER 800 μg/ml, DAY 1
  growth: (−)
[2]; TER 800 μg/ml, DAY 2
  growth: (−)
[2]; TER 800 μg/ml, DAY 3
  growth: (−)
[2]; TER 800 μg/ml, DAY 4
  growth: (−)
[2]; TER 800 μg/ml, DAY 5
  growth: (−)
[3]; TER 3.1 μg/ml, DAY 1
  growth: (+)
[3]; TER 3.1 μg/ml, DAY 2
  growth: (+)
[3]; TER 3.1 μg/ml, DAY 3
  growth: (+)
[3]; TER 3.1 μg/ml, DAY 4
  growth: (+)
[3]; TER 3.1 μg/ml, DAY 5
  growth: (+)
[3]; TER 6.2 μg/ml, DAY 1
  growth: (+)
[3]; TER 6.2 μg/ml, DAY 2
  growth: (+)
[3]; TER 6.2 μg/ml, DAY 3
  growth: (+)
[3]; TER 6.2 μg/ml, DAY 4
  growth: (+)
[3]; TER 6.2 μg/ml, DAY 5
  growth: (+)
[3]; TER 12.5 μg/ml, DAY 1
  growth: (+)
[3]; TER 12.5 μg/ml, DAY 2
  growth: (+)
[3]; TER 12.5 μg/ml, DAY 3
  growth: (+)
[3]; TER 12.5 μg/ml, DAY 4
  growth: (+)
[3]; TER 12.5 μg/ml, DAY 5
  growth: (+)
[3]; TER 25 μg/ml, DAY 1
  growth: (+)
[3]; TER 25 μg/ml, DAY 2
  growth: (+)
[3]; TER 25 μg/ml, DAY 3
  growth: (+)
[3]; TER 25 μg/ml, DAY 4
  growth: (+)
[3]; TER 25 μg/ml, DAY 5
  growth: (+)
[3]; TER 50 μg/ml, DAY 1
  growth: (+)
[3]; TER 50 μg/ml, DAY 2
  growth: (+)
[3]; TER 50 μg/ml, DAY 3
  growth: (+)
[3]; TER 50 μg/ml, DAY 4
  growth: (+)
[3]; TER 50 μg/ml, DAY 5
  growth: (+)
[3]; TER 100 μg/ml, DAY 1
  growth: (+)
[3]; TER 100 μg/ml, DAY 2
  growth: (+)
[3]; TER 100 μg/ml, DAY 3
  growth: (+)
[3]; TER 100 μg/ml, DAY 4
  growth: (+)
[3]; TER 100 μg/ml, DAY 5
  growth: (+)
[3]; TER 200 μg/ml, DAY 1
  growth: (+)
[3]; TER 200 μg/ml, DAY 2
  growth: (+)
[3]; TER 200 μg/ml, DAY 3
  growth: (+)
[3]; TER 200 μg/ml, DAY 4
  growth: (+)
[3]; TER 200 μg/ml, DAY 5
  growth: (+)
[3]; TER 400 μg/ml, DAY 1
  growth: (−)
[3]; TER 400 μg/ml, DAY 2
  growth: (−)
[3]; TER 400 μg/ml, DAY 3
  growth: (−)
[3]; TER 400 μg/ml, DAY 4
  growth: (−)
[3]; TER 400 μg/ml, DAY 5
  growth: (−)
[3]; TER 800 μg/ml, DAY 1
  growth: (−)
[3]; TER 800 μg/ml, DAY 2
  growth: (−)
[3]; TER 800 μg/ml, DAY 3
  growth: (−)
[3]; TER 800 μg/ml, DAY 4
  growth: (−)
[3]; TER 800 μg/ml, DAY 5
  growth: (−)
[3]; Tables 6 through 11
  antibacterial activity compared with tinidazole: superior to the antibacterial compound tinidazole

From patent publication US20080063668A1, “Nitroimidazole and terconazole composition and method” (priority 2006, published 2008)
